In patent US11963961B2, “Combination therapy comprising an ACC inhibitor” (Gilead Sciences, Inc., priority 2017, dated 2024):

Experiments:
[1] = test system: subjects with compensated cirrhosis due to NASH; experiment: Proof-of-concept study of Compound 1 in compensated cirrhosis due to NASH; type: in vivo, human
Description: Methods: In a proof-of-concept study, 10 subjects with suspected compensated cirrhosis (Child-Turcotte-Pugh [CTP]-A) due to NASH (defined by any one of biopsy, liver stiffness by magnetic resonance elastography [MRE]≥4.67 kPa or transient elastography ≥14.0 kPa, or Fibrotest ≥0.75) received Compound 1 20 mg orally once daily for 12 weeks. Centrally-read magnetic resonance imaging-proton density fat fraction (MRI-PDFF) and MRE, and serum markers of fibrosis were measured at baseline (BL), Week 4 (W4), and Week 12 ([…]). For DNL determination, heavy water (^2H2O, 35 mL) was administered three times daily for one-week cycles prior to baseline, W4, and […]. Deuterium incorporation into palmitate was measured in fasting plasma samples by GC/MS, and mass isotopomer distribution analysis was used to calculate hepatic DNL and its inhibition by Compound 1.

[2] = test system: non-cirrhotic subjects with NASH; experiment: Phase 2 trial of Compound 1 in NASH: acylcarnitine species by UHPLC-MS; type: in vivo, human
Description: Methods: In this double-blind, placebo-controlled trial, 126 non-cirrhotic subjects with NASH diagnosed noninvasively by MRI proton density fat fraction (PDFF) ≥8% and liver stiffness ≥2.5 kPa by MR elastography (MRE), or historical liver biopsy consistent with NASH and stage 1 to 3 fibrosis, were randomized 2:2:1 to receive Compound 1 20 mg, Compound 1 5 mg, or placebo orally QD for 12 weeks ([…]). Centrally-read MRI-PDFF and MRE, and FibroScan and serum markers of fibrosis were measured at baseline and […]. In some subjects, liver stiffness and hepatic fat content by Controlled Attenuation Parameter (CAP) were assessed using transient elastography (FibroScan®; Echosens, Paris, France) at baseline (i.e. week 0) and week 12. Acylcarnitine species measurements were performed with Ultrahigh Performance Liquid Chromatography-Tandem Mass Spectroscopy (UHPLC-MS; Waters Acquity UHPLC, Waters Corporation, Milford, MA USA) and Hybrid Quadrupole-Orbitrap mass spectometer (Q-Exactive Thermo Fischer Scientific, Waltham, MA, USA) platforms in electrospray ionisation-positive and -negative modes as known.

[3] = Compound 1 5 mg, PDFF Nonresponders
[4] = Compound 1 5 mg, PDFF Responders
[5] = Compound 1 20 mg, PDFF Nonresponders
[6] = Compound 1 20 mg, PDFF Responders

COc1ccccc1[C@H](Cn1c(=O)n(C(C)(C)C(=O)O)c(=O)c2c(C)c(-c3ncco3)sc21)OC1CCOCC1 [Compound 1, (R)-2-(1-(2-(2-methoxyphenyl)-2-((tetrahydro-2H-pyran-4-yl)oxy)ethyl)-5-methyl-6-(oxazol-2-yl)-2,4-dioxo-1,2-dihydrothieno[2,3-d]pyrimidin-3(4H)-yl)-2-methylpropanoic acid]
Asymptomatic Grade 3 hypertriglyceridemia ([1]; Compound 1 20 mg once daily, 10 subjects, responded to fibrate therapy): One subject
Changes in MRE-stiffness or serum fibrosis markers ([1]; Compound 1 20 mg once daily, 12 weeks): No significant changes
Tolerability ([1]; Compound 1 20 mg once daily, 12 weeks, no premature discontinuation): well-tolerated
Other lipid parameters ([1]; Compound 1 20 mg once daily, BL to W12): unchanged
≥30% relative decline in PDFF, % of subjects ([1]; Compound 1 20 mg once daily, W4, 5 of 10 subjects): 50%
≥30% relative decline in PDFF, % of subjects ([1]; Compound 1 20 mg once daily, W12, 7 of 10 subjects): 70%
Fasting triglycerides, median ([1]; Compound 1 20 mg once daily, W12, IQR (142, 248), BL 147 (105, 231), P=0.008): 159 mg/dL
Hepatic PDFF (MRI-PDFF), median ([1]; Compound 1 20 mg orally once daily, W12, BL 9.2, P=0.004): 4.6%
Serum ALT, median ([1]; Compound 1 20 mg orally once daily, W12, BL 46, P=0.008): 32 U/L
Acylcarnitine species compared according to PDFF response ([2]; Compound 1 5 mg): minimal changes
3-hydroxybutyrylcarnitine (1), median % change from baseline [2, 3]: −4.08%
5-dodecenoylcarnitine (C12:1), median % change from baseline [2, 3]: 15.43%
laurylcarnitine (C12), median % change from baseline [2, 3]: 15.23%
linolenoylcarnitine (C18:3), median % change from baseline [2, 3]: −23.55%
myristoleoylcarnitine (C14:1), median % change from baseline [2, 3]: 25.74%
myristoylcarnitine (C14), median % change from baseline [2, 3]: 12.05%
octadecenedioylcarnitine (C18:1-DC), median % change from baseline [2, 3]: 0%
palmitoleoylcarnitine (C16:1), median % change from baseline [2, 3]: 18.13%
3-hydroxybutyrylcarnitine (1), median % change from baseline [2, 4]: −18.06%
5-dodecenoylcarnitine (C12:1), median % change from baseline [2, 4]: 2.08%
laurylcarnitine (C12), median % change from baseline [2, 4]: 1.99%
linolenoylcarnitine (C18:3), median % change from baseline [2, 4]: 6.49%
myristoleoylcarnitine (C14:1), median % change from baseline [2, 4]: −4.71%
myristoylcarnitine (C14), median % change from baseline [2, 4]: −7.50%
octadecenedioylcarnitine (C18:1-DC), median % change from baseline [2, 4]: 33.24%
palmitoleoylcarnitine (C16:1), median % change from baseline [2, 4]: −0.06%
3-hydroxybutyrylcarnitine (1), median % change from baseline [2, 5]: 34.27%
5-dodecenoylcarnitine (C12:1), median % change from baseline [2, 5]: 58.85%
laurylcarnitine (C12), median % change from baseline [2, 5]: 36.72%
linolenoylcarnitine (C18:3), median % change from baseline [2, 5]: 20.43%
myristoleoylcarnitine (C14:1), median % change from baseline [2, 5]: 22.42%
myristoylcarnitine (C14), median % change from baseline [2, 5]: 23.92%
octadecenedioylcarnitine (C18:1-DC), median % change from baseline [2, 5]: 36.38%
palmitoleoylcarnitine (C16:1), median % change from baseline [2, 5]: 31.63%
3-hydroxybutyrylcarnitine (1), median % change from baseline [2, 6]: −13.99%
5-dodecenoylcarnitine (C12:1), median % change from baseline [2, 6]: −12.39%
laurylcarnitine (C12), median % change from baseline [2, 6]: −3.23%
linolenoylcarnitine (C18:3), median % change from baseline [2, 6]: −17.84%
myristoleoylcarnitine (C14:1), median % change from baseline [2, 6]: −7.22%
myristoylcarnitine (C14), median % change from baseline [2, 6]: −19.99%
octadecenedioylcarnitine (C18:1-DC), median % change from baseline [2, 6]: −11.01%
palmitoleoylcarnitine (C16:1), median % change from baseline [2, 6]: −9.82%
Multiple long and medium-chain acylcarnitine species, PDFF response versus no PDFF response ([2]; Compound 1 20 mg, before administration of the next daily dose): significantly reduced
